Experimental data as given in patent US5741476A, “Polyhydric phenol compounds” (Mallinckrodt Medical, Inc., priority 1992, dated 1998).
Like-named read-outs stand apart in the source and are kept apart here.

How the values were obtained:
[1] = in vivo distribution in rats
Method: The in vivo distribution in rats is determined by injecting approx. 10 μCi of the compound to be evaluated into the tail vein of the test animals. The test animals are sacrificed at appropriate time intervals after injection and the radioactivity of the organs of interest is measured by gamma scintillation counting.

[2] = system: hexokinase; experiment: hexokinase-model: inhibition of hexokinase-catalysed 6-phosphorilation of glucose; type: biochemical
Source text: In vitro evaluation of 3-halo-phloretin compounds using the "hexokinase-model"
The "hexokinase-model" is used as a model system for the glucose-transport proteins, which play a paramount role in the glucose metabolism.
The mechanism of the glucose--glucosetransportprotein interaction and following transport through the cell membrane of glucose, as described in literature (Scientific American, January 1992, p. 32-39; Biochemistry, Vol. 28, No. 20, 1989, p. 8221-8227), and the induced-fit model described for glucose 6-phosphorilation by hexokinase (Cell Biology, 1989) show a certain analogy which let to assume, that the interaction between a potential glucose transport inhibitor with hexokinase can be a valuable in vitro model if this inhibition is competitive for glucose.
The substitution of halogen such as a bromine or iodine atom on the 3-position of the 4-hydroxyl-phenylpropion part of phloretin increases the inhibition potency as shown as follows:
Inhibition of hexokinase catalyses 6-phosphorilation of glucose by deoxyglucose, phloretin and 3-bromo-phloretin.

[3] = weak acid; cited from earlier work
[4] = system: erythrocytes; experiment: binding of 3-125I-phloretin to erythrocytes; parameters: species or system human
Method: (§1) In order to be able to compare the binding to cancer cells with the binding to normal cells, the following experiments are carried out. Binding to certain cancer cells, viz. YAK1 mice lymphoma cells (10^6 cells/ml incubation medium) is compared with binding to erythrocytes of a young healthy person (10^6 cells/ml incubation medium), because erythocytes are typical reference cells for glucose transport studies.
(§2) The incubation media are respectively:
(§3) RPMI-buffer pH=8; 11 mM in glucose, and
(§4) RPMI buffer/0.9% NaCl: 1/1.
(§5) Each 1 ml essay contains 5% of foetal calf serum and is spiked (50 μl) with 3-^125 I-phloretin (initial activity is measured).
(§6) After 15 min incubation at 37° C., the suspension is centrifuged and the precipitate is resuspended with 1 ml cold buffer which is discarded after a second centrifugation. The final radioactive precipitate is suspended in 1 ml water and measured. The bound radioactivity is related to the initial activity.
Saturation binding of 3-^125 I-phloretin to 5.10^6 erythrocytes is performed in RPMI-buffer and Tris-buffer of pH 8. The binding experiments are performed at pH 8, because this is the pH of the RPMI buffer needed for optimum YAK1 cells growth. Incubation for 15 min at 37° C. Inhibition is studied by pre-incubation (15 min, 37° C.) of the erythrocytes in buffer containing 2.10^-4 M 3-Br-phloretin. After centrifugation, the Br-phloretin-containing solution is discarded and the precipitate washed with ice-cooled buffer. After a second centrifugation, the supernatant is discarded and the cells are resuspended in buffer containing 3^125 I-phloretin. After incubation for 15 min at 37° C., the same above procedure is applied. Phloretin is a weak acid (pK is approx. 7.3); only the uncharged (non-dissociated) form inhibits red cell glucose transport (Jennings et al., see above). Therefore the values mentioned hereinafter are corrected for dissociation.
When starting from small amounts (0.1×10^-10 M) N.C.A. 3-^125 I-phloretin up to higher concentrations and C.A. conditions (3-Br-phloretin used as analogue), two types of binding are observed: […]

[5] = system: YAK1 mice lymphoma cells; experiment: binding of 3-125I-phloretin to YAK1 lymphoma cells
Method: as §1, §2, §3, §4, §5, §6

[6] = binding in human whole blood (RB/plasma distribution, reversibility); type: in vitro ADME; conditions: for blood plasma ratio at 0.25 h / blood plasma ratio: human; for blood plasma ratio at 0.25 h: 37° C., 15 min, read-out: RB/plasma ratio after re-equilibration
Method: In vitro experiments: binding in human whole blood
Jennings et al. [J. Gen. Phys., 1967, 67, 381] have reported the binding of phloretin to whole red blood cells. Their results let to assume that phloretin should enter the erythrocytes and bind to haemoglobine. This should mean that a phloretin-based radiotracer should not be suitable for in vivo use. Therefore the reversibility of the binding is checked. For this purpose 3-^123 I-phloretin is added to whole heparinised blood. This is centrifuged, yielding serum S-*I and red blood portion RB-*I. S-*I and non-radioactive RB (1/1) and respectively non-radioactive S and RB-*I (1/1) are incubated at 37° C. for 15 min and centrifuged. The radioactivity of all the weighed aliquots is measured in a well NaI(T1) detector.

O=C(CCc1ccc(O)c(I)c1)c1c(O)cc(O)cc1O [3-*I-phloretin]
saturability of uptake in heart and muscle ([1]; decreased uptake in the presence of Br-phloretin): apparently saturable | uptake in the lungs (L/B) ([1]; i.v. tail vein, N.C.A. and C.A.): high uptake in the lungs

O=C(CCc1ccc(O)cc1)c1c(O)cc(O)cc1O [phloretin, reference compound]
type of inhibition of hexokinase activity ([2]; Lineweaver-Burck plots, versus glucose): competitive | pK [3]: approx. 7.3

O=C(CCc1ccc(O)c(Br)c1)c1c(O)cc(O)cc1O [3-Br--phloretin, 3-bromophloretin]
bound/free value of 3-125I-phloretin ([4]; erythrocytes pre-incubated with 2×10^-4 M 3-Br-phloretin, blank 0.193, average of 5 experiments): 0.081 | inhibition of 3-125I-phloretin binding ([4]; pre-incubation with 2×10^-4 M 3-Br-phloretin, compared with blank): 58% | decreased binding of 3-125I-phloretin ([5]; co-incubation of 3-Br-phloretin, YAK1 cells, 15 min): 30%

O=C(CCc1ccc(O)c(I)c1)c1c(O)cc(O)cc1O [3-I--phloretin, 3-I-phloretin]
potency as hexokinase inhibitor relative to the original phloretin ([2]; versus phloretin): approx. 2 times

O=C(CCc1ccc(O)c([125I])c1)c1c(O)cc(O)cc1O [3-^125 I-phloretin]
bound/free ratio ([4]; N.C.A., 10^6 erythrocytes, 15 min 37° C., average of at least 20 experiments): 0.021 | influence of glucose on binding ([4]; presence of 3.10^-2 -5.10^-3 M glucose): hardly influences the binding | Bmax ([4]; saturation binding 0.1 to 1.2 10^-10 M, Scatchard plot, pH 8): 4.7×10^-15 mol/10^6 erythrocytee | Kd ([4]; saturation binding 0.1 to 1.2 10^-10 M, Scatchard plot, pH 8, 15 min 37° C., corrected for dissociation, read-out: apparent Kd): 0.08 nM | bound/free ratio ([5]; N.C.A., 10^6 YAK1 cells, 15 min 37° C., average of at least 20 experiments): 0.048 | increase of uptake in YAK1 lymphoma cancer cells as compared to erythrocytes ([5]; YAK1 versus erythrocytes): > 2 factor | reversibility of binding to plasma-proteins and RB [6]: bound reversibly | blood plasma ratio at 0.25 h ([6]; N.C.A. radioactivity bound to RB, re-equilibrated with non-radioactive plasma): 0.15 | blood plasma ratio at 0.25 h ([6]; N.C.A. radioactivity bound to plasma, re-equilibrated with non-radioactive RB): 0.13 | blood plasma ratio ([6]; in the presence of non-radioactive Br-phloretin or phloretin): 0.32 | blood plasma ratio ([6]; non-carrier-added (N.C.A.) conditions): 0.215
